Test results published in the Bradley open melting point set (2014).
Several values for one entry are separate records, joined by “and”; a condition that tells them apart may be missing. Identical values can stand only once.

melting point	SMILES
-170 °C	CCO[SiH](OCC)OCC [triethoxysilane]
115 °C	OC(CCN1CCCCC1)(c1ccccc1)C1CCCCC1 (stereo not drawn) [trihexyphenidyl]
-59 °C	CC(C)OB(OC(C)C)OC(C)C [triisopropyl borate]
200 °C	COc1cc(Cc2cnc(N)nc2N)cc(OC)c1OC [trimethoprim]
17 °C	CC(C)(C)C#N [trimethylacetonitrile]
45 °C	CC(CN(C)C)CN1c2ccccc2CCc2ccccc21 (stereo not drawn) [trimipramine]
127 °C	c1ccc(N(c2ccccc2)c2ccccc2)cc1 [triphenylamine]
147 °C	c1ccc(B(c2ccccc2)c2ccccc2)cc1 [triphenylborane]
199 °C and 196 °C and 197 °C	c1ccc2c(c1)c1ccccc1c1ccccc21 [triphenylene]
163 °C	OC(c1ccccc1)(c1ccccc1)c1ccccc1 [triphenylmethanol] [listing 1 of 2 here]
163 °C	OC(c1ccccc1)(c1ccccc1)c1ccccc1 [triphenylmethanol] [listing 2 of 2 here]
43 °C	c1ccc([SiH](c2ccccc2)c2ccccc2)cc1 [triphenylsilane]
-35 °C	C[Si](C)(C)OB(O[Si](C)(C)C)O[Si](C)(C)C [tris(trimethylsilyl) borate]
53 °C	O=c1cccccc1O [tropolone]
0 °C and -2 °C	CCCCCCCCCCC=O [undecanal]
330 °C	O=c1cc[nH]c(=O)[nH]1 [uracil]
82 °C	COc1cc(C=O)ccc1O [vanillin]
178 °C	Cc1cc(CC(=O)O)n(C)c1C(=O)c1ccc(Cl)cc1 [zomepirac]
197 °C	O=C(O)Cc1nn(Cc2nc3cc(C(F)(F)F)ccc3s2)c(=O)c2ccccc12 [zopolrestat]

SMILES	melting point
CP(C)(C)=O [trimethylphosphine oxide]	141 °C
c1csc(P(c2cccs2)c2cccs2)c1 [tris(2-thienyl)phosphine]	29 °C
CN1[C@@H]2CC[C@H]1C[C@@H](O)C2 [tropine]	63 °C
C=COC(C)=O [vinyl acetate]	-100 °C
